One may read the EC50 as the midpoint of the concentration-response curve.

The results in this text go back to ChEMBL document CHEMBL1933003, “Cytotoxic esterified diterpenoid alkaloid derivatives with increased selectivity against a drug-resistant cancer cell line” (Bioorg Med Chem Lett, 2012).

In test [1] the test system is KB. The test is described as follows: Cytotoxicity against human KB cells by sulforhodamine B assay. Format: functional, cell-based. (Sulforhodamine B stains cellular protein and so reports cell mass.)
For another test, the system named is DU-145. The test can be described thus: Cytotoxicity against human DU145 cells by sulforhodamine B assay. Type of test: functional, cell-based.
Test [2] concerns KB. The test can be described thus: Cytotoxicity against multi-drug resistant variant vincristine resistant human KB cells expressing P-glycoprotein by sulforhodamine B assay. Type of test: functional, cell-based.
The next test relates to A549. The test is described as follows: Cytotoxicity against human A549 cells by sulforhodamine B assay. Format: functional, cell-based.
Test [3] concerns KB. The test can be described thus: Selectivity ratio of EC50 for human KB cells to EC50 for multi-drug resistant variant vincristine resistant human KB cells expressing P-glycoprotein by sulforhodamine B assay. Format: functional.

`CCOc1ccc(C(=O)O[C@H]2[C@@H]3[C@@]4(C)CC[C@H](OC)[C@]35C(N(CC)C4)[C@@]23OCO[C@@]32C[C@H](OC)[C@H]3C[C@@H]5[C@@H]2[C@H]3OC)cc1` (single isomer, unassigned): the EC50 with KB [1] is 14.8 µM; with DU-145, 15.6 µM; in the test on KB [2], 6.5 µM; in the test with A549 it was 20 µM. Further, the “Ratio EC50” value with KB [3] is 2.28.
